A short description of data set [1]: White blood cell count in A375 tumor bearing mice. In kind it is in vivo. To be noted: ATT-1 3 doses of 30 mg/kg, CCNU 6 doses of 15 mg/kg; tested 1 and 4 days post last dose. Here is the method: Repeated doses of ATT-1 (3 doses of 30 mg/kg) and CCNU (6 doses of 15 mg/kg) were administered to A375 tumor bearing mice and WBC was tested (at AML, Herzelia, Israel) 1 and 4 days post last dose.

The subject of a further data set is A375-melanoma cells. Briefly: In vitro cytotoxicity, XTT tetrazolium dye reduction cell viability assay. In kind it is cell-based. The note with it: Homo sapiens.
The next data set concerns A375 melanoma tumors. Briefly: Tumor growth inhibition in subcutaneous A375 melanoma xenograft. In kind it is in vivo, athymic nude mice.
The conditions of data set [2]: mouse, in vivo.
Data set [3] can be described thus: Maximal tolerated dose in healthy nude mice. To be noted: female, athymic (nu/nu), mouse, in vivo, iv; i.v. on 5 consecutive days; determined 24 hr after the last dose; no lethality and body weight loss <20%. Here is the method:
Increasing doses of ATT-11E were tested on nude mice for their effect on body weight. Healthy female athymic (nu/nu) mice (6-8 weeks) (Harlan Inc., Jerusalem, Israel) were used for determination of maximum tolerable dose (MTD). MTD was defined as the maximum dose that caused no drug-related lethality and that produced animal body weight loss of <20% of original weight. ATT-11E was dissolved in phosphate buffer (pH 7.4) containing 10% DMSO and 30% cremophor and administered by i.v. injection. ATT-11E was administered on 5 consecutive days. Body weight of mice was monitored daily and MTD was determined 24 hr post last dose.

[4] abbreviates: A-375, 48 h, read-out: IC50 (inhibitory concentration of 50% of cells).
Where [5] appears, read: female, beagle, dog, in vivo, iv, 6 mg/kg.

Structures are written as SMILES. Several values for one entry are separate records, joined by “and”; a condition that tells them apart may be missing. Identical values can stand only once. Entries after “also recorded” stand apart in the source; their conditions may differ. Like-named read-outs stand apart in the source and are kept apart here.

Turning to `CCCCCC(CCC1CCC(NC(=O)N(CCCl)N=O)CC1)(C(=O)O)C(=O)O` (stereo not shown) [ATT-1], in data set [1], the “Reduction of WBC compared to the control” value stood at 27%. In the data set on A375-melanoma cells (setting [4]), the IC50 was determined as 545 µM. For the same compound, in the data set on A375 melanoma tumors (mouse, in vivo), the T/C is reported as 0.24; the “T/C, ratio of tumor volume of treated compared to control” value was 0.33; the “T/C, tumor volume treated compared to control” value is on record as 0.52; the Tumor growth inhibition is 48% and 76%. Further, the “Tumor growth inhibition compared with control” value in the data set with A375 melanoma tumors (mouse, in vivo) was 77% and 73%. This compound displayed a Weight loss in data set [2] of 14%.
As for `O=NN(CCCl)C(=O)NC1CCCCC1` [CCNU, Chloroethylcyclo-hexylnitrosourea, reference compound], in data set [1], the “Reduction of WBC compared to the control” value is 89%. In addition, the IC50 in the data set on A375-melanoma cells (A-375, 48 h, A375 cells, 48 hours of incubation, XTT, read-out: IC50 (inhibitory concentration of 50% of cells)) turned out to be 200 µM. Moreover, the “T/C, tumor volume treated compared to control” value in the data set with A375 melanoma tumors (equal total dose: ATT-1 3 doses of 30 mg/kg, CCNU 6 doses of 15 mg/kg, day 23) turned out to be 0.47. For the same compound, the Tumor growth inhibition with A375 melanoma tumors (equi-molar doses: ATT-1 3×30 mg/kg, CCNU 3×15 mg/kg) was determined as 48%. This compound registered a T/C in the data set with A375 melanoma tumors (equi-molar doses: ATT-1 3×30 mg/kg, CCNU 3×15 mg/kg, day 30) of 0.56. Besides, in data set [2], the Weight loss turned out to be 19%.
As to `CCc1c2c(nc3ccc(OC(=O)N4CCC(N5CCCCC5)CC4)cc13)-c1cc3c(c(=O)n1C2)COC(=O)[C@]3(O)CC` [CPT-11, Irinotecan, reference compound], the IC50 with A375-melanoma cells (A-375, 24 h, A375 cells, Example 10, incubated for 24 hr, XTT, read-out: IC50) worked out at 44 µM; in the data set with A375-melanoma cells (A-375, 24 h, A375 cells, Example 15 / FIG. 14, 24 hours of incubation, read-out: IC50), 9 µM. Moreover, in the data set on A375 melanoma tumors (i.v., ATT-11TBE 20 mg/kg 3 times a week (9 doses), CPT-11 75 mg/kg once a week for three weeks, 22 days after the last dose), the “Tumor growth delay after the last dose (in words)” value was “never reached the complete tumor regression”. Where the note is “6 mg/kg intravenous, beagle dogs, 24 hours”, the “Plasma level of derived SN-38 at 24 hours after administration (in words)” value is listed as “below detection level”.
With `CCOC(=O)C(C)(CCC1CCN(C(=O)Oc2ccc3nc4c(c(CC)c3c2)Cn2c-4cc3c(c2=O)COC(=O)C3(O)CC)CC1)C(=O)OCC` (stereo not shown) [ATT-11E], the MTD (as a rule, the largest dose that counted as tolerated) at 5 days in data set [3] is above 40 mg/kg. The IC50 in the data set with A375-melanoma cells (A-375, 24 h) turned out to be 0.6 µM; in the data set on A375-melanoma cells (setting [4]), 0.6 µM. In addition, the % inhibition (as a rule, the drop in the measured response relative to a control, in per cent) with A375 melanoma tumors (mouse, in vivo, 1 mg/kg) was 54%; in the data set with A375 melanoma tumors (mouse, in vivo, 2.5 mg/kg), 65%; with A375 melanoma tumors (mouse, in vivo, 5 mg/kg), 72%; in the data set on A375 melanoma tumors (mouse, in vivo, 20 mg/kg), 88%; in the data set with A375 melanoma tumors (mouse, in vivo, 30 mg/kg), 93%. The T/C with A375 melanoma tumors (mouse, in vivo, 1 mg/kg) was 0.46 and 0.62; in the data set on A375 melanoma tumors (mouse, in vivo, 2.5 mg/kg), 0.35; in the data set on A375 melanoma tumors (mouse, in vivo, 3 mg/kg) it was 0.41; in the data set with A375 melanoma tumors (mouse, in vivo, 5 mg/kg), 0.28; in the data set on A375 melanoma tumors (mouse, in vivo, 9 mg/kg), 0.39; with A375 melanoma tumors (mouse, in vivo, 30 mg/kg), 0.07. In the data set on A375 melanoma tumors (mouse, in vivo, 40 mg/kg), this compound had a T/C of 0.1. The “Tumor volume growth inhibition (TVI)” value with A375 melanoma tumors (mouse, in vivo, 20 mg/kg) turned out to be 97%; in the data set on A375 melanoma tumors (mouse, in vivo, 40 mg/kg), 90%.
Take `CCOC(=O)C(C)(CCC1CCC(NC(=O)N(CCCl)N=O)CC1)C(=O)OCC` (stereo not shown) [ATT-5E]: the IC50 with A375-melanoma cells (setting [4]) was determined as 130 µM.
Regarding `CCc1c2c(nc3ccc(OC(=O)N4CCC(CCC(C)(C(=O)OC(C)(C)C)C(=O)OC(C)(C)C)CC4)cc13)-c1cc3c(c(=O)n1C2)COC(=O)C3(O)CC` (stereo not shown) [ATT-11TBE], the IC50 in the data set with A375-melanoma cells (A-375, 24 h) turned out to be 0.8 µM. Also, the “Tumor growth delay after the last dose (in words)” value in the data set with A375 melanoma tumors (mouse, in vivo) is listed as “complete tumor regression; also recorded: substantially inhibited tumor growth, even 22 days after the last dose”. Moreover, the “Tumor volume growth inhibition (TVI)” value in the data set on A375 melanoma tumors (mouse, in vivo, 5 mg/kg) amounted to 97%; with A375 melanoma tumors (mouse, in vivo, 20 mg/kg) it was 100%. The “Plasma level of derived SN-38 at 24 hours after administration (in words)” value (dog, in vivo) was “still detectable”. Under setting [5], the “AUC of metabolite SN-38, fold larger than SN-38 derived from CPT-11” value stood at 3.6 fold. Besides, the “Plasma half-life (t1/2) of metabolite SN-38, fold longer than SN-38 derived from CPT-11” value under setting [5] stood at 3.1 fold.

The values are drawn from patent US20120142722A1, “CONJUGATES OF CYTOTOXIC DRUGS” (priority 2009, published 2012).
